Ends that are not written are not given here.
How the values were obtained:
Format in all cases: cell-based
[1] = system: S. aureus 31; experiment: MIC in solution (tube/microtitre turbidity); conditions: MIC, peptide in solution, 18 hours at 35° C.
Procedure: (§1) To assess the effect of cationic proteins/peptides in solution against bacterial cells, Psudomonas aeruginosa 6294 and Staphylacoccus aureus 31 cells were grown as for 18 hours in Tryptone Soya Broth (TSB) at 35° C. The cells were then harvested by centrifugation and washed twice in phosphate buffered saline (PBS; NaCl 8 g/l; KCl 0.2 g/l; Na2HPO4 1.15 g/l; KH2PO4 0.2 g/l). The cells were then re-suspended to OD 0.1 at 660 nm in PBS. The cationic peptide was serially diluted from 1 mg/ml and dilutions were added to wells in a 96 well microtitre plate or into 5 ml disposable test-tubes. Controls were bacteria without peptides. Bacteria were incubated for 18 hours at 35° C. and turbidity was measured at 660 nm. A lack of turbidity in the test-tube corresponding to the peptide dilution was considered to be the minimum inhibitory concentration (“MIC”).

[2] = system: P. aeruginosa 6294; conditions: for minimum concentration required to inhibit bacterial growth, P.a 6284: MIC, peptide in solution, 18 hours at 35° C.
Procedure: as §1

[3] = system: sheep red blood cells; experiment: Lysis of sheep red blood cells; conditions: 37° C. for 4 h, various concentrations
Procedure: FIG. 1 is a graph showing the % lysis sheep red blood cells relative to water for various peptides.
(§2) For in vitro cytotoxic testing, solutions of L-Melimine were prepared in PBS (500 μg/ml, 250 μg/ml, 125 μg/ml and 62.5 μg/ml). Solutions were then diluted 1:3 in tissue culture media (EMEM) and added to murine L929 cells for 48 hours. Cells are rinsed in saline then harvested using 0.25% trypsin for 3-5 minutes at ambient temperature. 1 ml of saline is then added to cells and trypsin mixture, a 500 μl aliquot is added to 19.5 ml of saline and counted in a coulter counter in triplicate. Results are compared to unperturbed cultures as well as positive (cyotoxic) controls. Results are expressed as percentage of non-viable cells (100-number of cells in sample/number of cells in unperturbed cells×100). In addition, the ability of the peptides to lyze sheep red blood cells was examined. The sheep red blood cells were washed and resuspended in PBS. Peptides at various concentrations were added to the red blood cells and incubated at 37° C. for 4 h. 100% lysis was obtained using distilled water and 0% lysis was obtained using PBS. Lysis was measured by measuring the amount of haemoglobin released into the PBS after centrifugation to remove whole red blood cells.

[4] = system: S. aureus CK5; experiment: MIC in solution (tube/microtitre turbidity); conditions: MIC, peptide in solution, 18 hours at 35° C.
[5] = system: P. aeruginosa 15442; experiment: MIC in solution (tube/microtitre turbidity); conditions: MIC, peptide in solution, 18 hours at 35° C.
[6] = system: P. aeruginosa 6294; experiment: Viable counts of bacteria adhered to peptide-adsorbed Etafilcon A lenses; conditions: 500 μg/lens adsorbed on Etafilcon lens, vs uncoated control lens
Procedure: (§3) For conducting viable counts, Etafilcon A lenses were removed from the manufacturers vials, washed three times in 1 ml PBS, dried and then coated by pipetting 500 μg L-Melimine onto the contact lenses (melimine was dissolved in […] and air dried onto contact lenses) overnight at ambient temperature in a fume hood. Lenses were rehydrated in PBS for 10 minutes and 0.5 ml of 1×10^8 bacterial cells/ml, including gram-positive S. aureus and gram-negative P. aeruginosa were added to the lenses. After incubation at ambient temperature for either 10 min or 5 hours, the lenses were washed three times in PBS to remove non-adherent or loosely adherent bacteria. Lenses were then homogenized using tissue homogenizer and 1 ml PBS until lens disintegration (about 1-2 minutes). Serial dilutions were then made according to the technique of Miles and Misra and aliquots (20 μL) plated out on nutrient agar. After incubation overnight at 37° C., viable bacteria were determined and results expressed as colony forming units/mm^2 after calculation of the surface area of the lens (approximately 310 mm^2). The effects are calculated based upon comparison to adhesion control lens that was not coated with cationic protein/peptide before bacterial adhesion testing.
(§4) Etafilcon lenses, commercially available from Johnson & Johnson as ACUVUE® Brand contact lenses) were soaked as in Example 2, above, except that the L-melimine concentration was varied: 125 μg, 250 μg or 500 μg/lens. After absorption of L-Melimine onto the hydrogel polymer, the lenses were rehydrated with PBS, and exposed to S. aureus or P. saeruginosa for either 10 minutes or five hours, as described in Example 2. After exposure, the polymer was evaluated for numbers of microorganisms the standard Miles and Misra plate count assay.
(§5) Stock solutions (50 mg/ml) were prepared containing the L-Protattin in distilled water. 500 μg of the stock solution was adsorbed to a contact lens made from Etafilcon A as for L-melamine in Example 2 for 18 hours at ambient temperature in a fume hood. The subsequent experimental details are as described in Example 2, above and viable bacteria was measured.
(§6) Contact lenses were coated and dried (as in Example 2) and D-Melimine applied at a concentration of either 250 μg per lens or 500 μg per lens. D-melimine was made using D-amino acids as for L-melimine using standard peptide synthesis techniques (e.g. Fmoc). Assays for measuring inhibition of bacterial adhesion were performed as in Example 2.

[7] = system: S. aureus 31; experiment: as above; conditions: 500 μg/lens adsorbed on Etafilcon lens, vs uncoated control lens
Procedure: as §3, §4, §5, §6

[8] = system: P. aeruginosa 15442; experiment: as above; conditions: 500 μg/lens adsorbed on Etafilcon A lens, vs uncoated control lens
Procedure: as §3, §5

[9] = system: S. aureus CK5; experiment: as above; conditions: 500 μg/lens adsorbed on Etafilcon A lens, vs uncoated control lens
Procedure: as §3, §5

[10] = system: P. aeruginosa 6294; experiment: Heat stability study: inhibition of growth in solution after autoclaving; conditions: 1000 μg/ml in PBS mixed with equal volume of bacteria
Procedure: (§7) A heat stability study was conducted to evaluate whether post-exposure of the L-Melimine to autoclaving would alter the ability of the peptide to prevent bacterial growth.
(§8) Bacteria (P. aeruginosa 6294 and S. aureus 31) were grown for 18 hours at 35° C. in TSB, then washed twice in PBS. The bacteria were resuspended in PBS to an optical density of 0.1 at 660 nm. L-Melimine was dissolved in PBS to a concentration of 1000 μg/ml and autoclaved at 121° C. for 15 minutes. Equal volumes of bacterial suspension and L-Melimine were then added together and incubated at 35° C. for periods of up to 72 hours. Controls were non-autoclaved L-Melimine. After 24, 48 and 72 hours, aliquots of the bacteria/L-Melimine solutions were removed and the number of viable bacteria were counted using the standard Miles and Misra plate count assay.

[11] = system: S. aureus 31; experiment: as above; conditions: 1000 μg/ml in PBS mixed with equal volume of bacteria
Procedure: as §7, §8

[12] = system: murine L929 cells; experiment: In vitro cytotoxic testing; conditions: for % cell inhibition: 48 hours
Procedure: as §2

[13] = system: P. aeruginosa
Procedure: as §1
(§9) L-Melimine was evaluated to determine its potential to induce resistance in P. aeruginosa and S. aureus. Prior to L-Melimine exposure, MICs of both strains were determined as in Example 1. […] Bacteria were grown overnight in TSB. Bacteria were inoculated 1:100 into fresh TSB containing sub-inhibitory levels of L-Melimine and incubated overnight. Bacteria from the broth containing sub-inhibitory levels (column 2, Table 9) were then re-incubated in fresh TSB with the same concentration of L-Melimine. This was repeated for 30 consecutive days. After passaging, a MIC for the bacteria from the last passage was determined. Any increase in MIC would indicate a potential for bacteria to become resistant.

[14] = system: S. aureus
Procedure: as §1, §9

[15] = Autoclaved at 121° C. for 15 minutes
[16] = Treatment None (non-autoclaved)

Compound: CC[C@H](C)[C@H](NC(=O)CN)C(=O)NCC(=O)N[C@@H](C)C(=O)N[C@H](C(=O)N[C@@H](CC(C)C)C(=O)N[C@@H](CCCCN)C(=O)N[C@H](C(=O)N[C@@H](CC(C)C)C(=O)N[C@H](C(=O)N[C@H](C(=O)NCC(=O)N[C@@H](CC(C)C)C(=O)N1CCC[C@H]1C(=O)N[C@@H](C)C(=O)N[C@@H](CC(C)C)C(=O)N[C@H](C(=O)N[C@@H](CO)C(=O)N[C@@H](Cc1c[nH]c2ccccc12)C(=O)N[C@H](C(=O)N[C@@H](CCCCN)C(=O)N[C@@H](CCCNC(=N)N)C(=O)N[C@@H](CCCCN)C(=O)N[C@@H](CCCNC(=N)N)C(=O)N[C@@H](CCC(N)=O)C(=O)N[C@@H](CCC(N)=O)C(N)=O)[C@@H](C)CC)[C@@H](C)CC)[C@@H](C)O)[C@@H](C)O)C(C)C)C(C)C [Mellitin]
- minimum concentration required to inhibit bacterial growth, S.a. 31 [1]: 15 µg/mL
- minimum concentration required to inhibit bacterial growth, P.a 6284 [2]: R (R = resistant, highest concentration of peptide = 1000 ug/Ml)
- hemolysis of red blood cells (FIG. 1, % lysis relative to water) [3]: extensive hemolysis

Compound: PRRRRSSSRPVRRRRRPRVSRRRRRRGGRRRR [Protamine, full-length protamine comparison]
- minimum concentration required to inhibit bacterial growth, S.a. 31 [1]: R (R = resistant, highest concentration of peptide = 1000 ug/Ml)
- minimum concentration required to inhibit bacterial growth, P.a 6284 [2]: R (R = resistant, highest concentration of peptide = 1000 ug/Ml)

Compound: RPRVSRRRRRRGGRRRRTLISWIKNKRKQ (RPRVSRRRRRRGGRRRRTLISWIKNKRKQ) [Prottatin]
- minimum concentration required to inhibit bacterial growth, S.a. 31 [1]: 1000 µg/mL
- minimum concentration required to inhibit bacterial growth, S.a. CK5 [4]: 500 µg/mL
- minimum concentration required to inhibit bacterial growth, P.a 6284 [2]: 500 µg/mL
- minimum concentration required to inhibit bacterial growth, P.a 15442 [5]: 1000 µg/mL
- % reduction at 10 min [6]: 97 ± 5 (6) %
- % reduction at 5 hrs [6]: 57 ± 39 (6) %
- % reduction at 10 min [7]: 64 ± 18 (6) %
- % reduction at 5 hrs [7]: 43 ± 33 (6) %
- % reduction at 10 min [8]: 94 ± 4 (8) %
- % reduction at 5 hrs [8]: 63 ± 32 (7) %
- % reduction at 10 min [9]: 6 ± 62 (7) %
- % reduction at 5 hrs [9]: 3 ± 25 (7) %

Compound: RPRVSRRRRRRGGRRRR [Protamine (1-17), 1-17 segment of protamine, segment B]
- minimum concentration required to inhibit bacterial growth, S.a. 31 [1]: R (R = resistant, highest concentration of peptide = 1000 ug/Ml)
- minimum concentration required to inhibit bacterial growth, S.a. CK5 [4]: 1000 µg/mL
- minimum concentration required to inhibit bacterial growth, P.a 6284 [2]: R (R = resistant, highest concentration of peptide = 1000 ug/Ml)
- minimum concentration required to inhibit bacterial growth, P.a 15442 [5]: R (R = resistant, highest concentration of peptide = 1000 ug/Ml)

Compound: TLISWIKNKRKQ [Mellitin (15-26), 15-26 segment of mellitin, segment A]
- minimum concentration required to inhibit bacterial growth, S.a. 31 [1]: R (R = resistant, highest concentration of peptide = 1000 ug/Ml)
- minimum concentration required to inhibit bacterial growth, S.a. CK5 [4]: R (R = resistant, highest concentration of peptide = 1000 ug/Ml)
- minimum concentration required to inhibit bacterial growth, P.a 6284 [2]: R (R = resistant, highest concentration of peptide = 1000 ug/Ml)
- minimum concentration required to inhibit bacterial growth, P.a 15442 [5]: R (R = resistant, highest concentration of peptide = 1000 ug/Ml)

Compound: TLISWIKNKRKQRPRVSRRRRRRGGRRRR [Melimine, TLISWIKNKRKQRPRVSRRRRRRGGRRRR]
- MIC, P. aeruginosa resistant up to ([2]; text summary of Table 1, highest concentration used): > 1000 µg/mL
- % inhibition of growth @ 24 hours [10, 15]: 100 (3) %
- % inhibition of growth @ 48 hours [10, 15]: 100 (3) %
- % inhibition of growth @ 72 hours [10, 15]: 100 (2) %
- % inhibition of growth @ 24 hours [10, 16]: 100 (5) %
- % inhibition of growth @ 48 hours [10, 16]: 100 (3) %
- % inhibition of growth @ 72 hours [10, 16]: 100 (2) %
- % inhibition of growth @ 24 hours [11, 15]: 100 (3) %
- % inhibition of growth @ 48 hours [11, 15]: 100 (3) %
- % inhibition of growth @ 72 hours [11, 15]: 99 (2) %
- % inhibition of growth @ 24 hours [11, 16]: 100 (5) %
- % inhibition of growth @ 48 hours [11, 16]: 100 (3) %
- % inhibition of growth @ 72 hours [11, 16]: 99 (2) %
- % cell inhibition ([12]; 62.5 μg/ml solution in PBS diluted 1:3 in EMEM): 20%
- % cell inhibition ([12]; 125 μg/ml solution in PBS diluted 1:3 in EMEM): 8%
- % cell inhibition ([12]; 250 μg/ml solution in PBS diluted 1:3 in EMEM): 26%
- % cell inhibition ([12]; 500 μg/ml solution in PBS diluted 1:3 in EMEM): 44%
- cytotoxicity (in words) ([12]; at 500 μg/ml): marginally cytotoxic
- cytotoxicity (in words) ([12]; at all other concentrations (250, 125, 62.5 μg/ml)): non-cytotoxic
- hemolysis of red blood cells (FIG. 1, % lysis relative to water) [3]: least amount of hemolysis of any peptide/protein
- MIC post-passage ([13]; after 30 consecutive days passage): 4 mg/mL
- MIC prior to passage ([13]; starting concentration raised to 15 mg/ml, procedure of Example 1): 4 mg/mL
- MIC post-passage ([14]; after 30 consecutive days passage at 30 μg/ml): 63 µg/mL
- MIC prior to passage ([14]; procedure of Example 1): 125 µg/mL
